Test system: GDF8 signaling (GDF pSMAD, MPC11)
Assay: AlphaScreen SureFire SMAD3 (p-Ser423/425) assay, inhibition of GDF8 signaling
Type: cell-based
Details: Mus musculus, MPC-11, inhibition of GDF8 signaling, p-SMAD3 readout

`Cc1nc(-c2ccc(F)c(F)c2)c(-c2ccc3[nH]ncc3c2)[nH]1` [Compound 83, 5-(4-(3,4-Difluorophenyl)-2-methyl-1H-imidazol-5-yl)-1H-indazole] and `Cc1nc(-c2cccc(Cl)c2)c(-c2ccc3[nH]ncc3c2)[nH]1` [Compound 101, 5-(4-(3-Chlorophenyl)-2-methyl-1H-imidazol-5-yl)-1H-indazole] are within 1.5-fold of each other in IC50: 130 nM for the first, 140 nM for the second.

Going from `CCc1nc(-c2cc(F)cc(Cl)c2)c(-c2ccc3ncsc3c2)[nH]1` [Compound 140, 6-(4-(3-Chloro-5-fluorophenyl)-2-ethyl-1H-imidazol-5-yl)benzo[d]thiazole] to `Cc1nc(-c2ccc(F)cc2)c(-c2ccc3ncsc3c2)[nH]1` [Compound 80, 6-(4-(4-Fluorophenyl)-2-methyl-1H-imidazol-5-yl)benzo[d]thiazole], the IC50 falls from 620 nM to 220 nM (2.8-fold). The second is the more potent here.

Compared with `Nc1nc(-c2ccc(F)cc2)c(-c2ccc3nccnc3c2)s1` [Compound 170, 4-(4-fluorophenyl)-5-(quinoxalin-6-yl)thiazol-2-amine], `Fc1ccc(-c2ncsc2-c2ccc3ncsc3c2)cc1` [Compound 181, 6-(4-(4-fluorophenyl)thiazol-5-yl)benzo[d]thiazole] is 3.4-fold higher in IC50: 98.6 nM for the first, 336 nM for the second. The first is the more potent here.

`Cc1cc(-c2ncsc2-c2ccc3[nH]ncc3c2)ccc1F` [Compound 156, 4-(4-fluoro-3-methylphenyl)-5-(1H-indazol-5-yl)thiazole] and `Fc1ccc(-c2nc[nH]c2-c2ccc3[nH]ncc3c2)cc1F` [Compound 31, 5-(4-(3,4-Difluorophenyl)-1H-imidazol-5-yl)-1H-indazole] are within 1.5-fold of each other in IC50: 25.3 nM for the first, 20 nM for the second.

Compared with `CCc1nc(-c2ccc(F)cc2)c(-c2ccc3ncnn3c2)[nH]1` [Compound 121, 6-(2-Ethyl-4-(4-fluorophenyl)-1H-imidazol-5-yl)-[1,2,4]triazolo[1,5-a]pyridine], `Cn1cnc(-c2ccc(F)cc2)c1-c1ccc2[nH]ncc2c1` [Compound 48, −(4-(4-Fluorophenyl)-1-methyl-1H-imidazol-5-yl)-1H-indazole] is 7.7-fold lower in IC50: 460 nM for the first, 60 nM for the second.

Compared with `Cc1cc(-c2nc(C)n(C)c2-c2ccc3ncsc3c2)ccc1F` [Compound 55, 6-(4-(4-Fluoro-3-methylphenyl)-1,2-dimethyl-1H-imidazol-5-yl)benzo[d]thiazole], `Cc1nc(-c2ccc(F)c(C)c2)c(-c2ccc3nccn3c2)[nH]1` [Compound 74, 6-(4-(4-Fluoro-3-methylphenyl)-2-methyl-1H-imidazol-5-yl)imidazo[1,2-a]pyridine] is 4.2-fold lower in IC50: 840 nM for the first, 200 nM for the second.

Compared with `COc1cccc(-c2nc(N)sc2-c2ccc3[nH]ncc3c2)c1` [Compound 177, 5-(1H-indazol-5-yl)-4-(3-methoxyphenyl)thiazol-2-amine], `Nc1nc(-c2cccc(Cl)c2)c(-c2ccc3cn[nH]c3c2)s1` [Compound 172, 4-(3-chlorophenyl)-5-(1H-indazol-6-yl)thiazol-2-amine] is 1.9-fold lower in IC50: 234 nM for the first, 121 nM for the second. The second is the more potent here.

Compared with `Nc1nc(-c2cccc(C(F)(F)F)c2)c(-c2ccc3cn[nH]c3c2)s1` [Compound 185, 5-(1H-indazol-6-yl)-4-(3-(trifluoromethyl)phenyl)thiazol-2-amine], `Fc1cccc(-c2nc[nH]c2-c2ccc3cn[nH]c3c2)c1` [Compound 28, 6-(4-(3-Fluorophenyl)-1H-imidazol-5-yl)-1H-indazole] is 8.5-fold lower in IC50: 425 nM for the first, 50 nM for the second.

Compared with `Fc1cccc(-c2nc[nH]c2-c2ccc3ncsc3c2)c1` [Compound 30, 6-(4-(3-Fluorophenyl)-1H-imidazol-5-yl)benzo[d]thiazole], `Fc1ccc(-c2nc[nH]c2-c2ccc3ncccc3c2)cc1F` [Compound 36, 6-(4-(3,4-Difluorophenyl)-1H-imidazol-5-yl)quinoline] is 1.9-fold higher in IC50: 270 nM for the first, 500 nM for the second. The first is the more potent here.

Compared with `Fc1ccc(-c2nc[nH]c2-c2ccc3ncccc3c2)cc1` [Compound 38, 6-(4-(4-Fluorophenyl)-1H-imidazol-5-yl)quinoline], `c1ccc(-c2nc[nH]c2-c2ccc3[nH]ncc3c2)cc1` [Compound 1, 5-(4-Phenyl-1H-imidazol-5-yl)-1H-indazole] is 13-fold lower in IC50: 930 nM for the first, 70 nM for the second. The second is the more potent here.

First: Cn1cnc(-c2ccc(F)c(F)c2)c1-c1ccc2nccnc2c1 [Compound 68, 6-(4-(3,4-Difluorophenyl)-1-methyl-1H-imidazol-5-yl)quinoxaline]
Second: Cc1nc(-c2cc(F)c(F)c(F)c2)c(-c2ccc3nccnc3c2)[nH]1 [Compound 96, 6-(2-Methyl-4-(3,4,5-trifluorophenyl)-1H-imidazol-5-yl)quinoxaline]
The IC50 of the first is 2.4-fold higher: 1050 nM for the first, 440 nM for the second.

Test system: TGF-β signaling (TGF-β pSMAD, MPC-11)
Assay: AlphaScreen SureFire SMAD3 (p-Ser423/425) assay, inhibition of TGF-β signaling
Type: cell-based
Details: Mus musculus, MPC-11, inhibition of TGF-β signaling, p-SMAD3 readout

Compared with `Cc1nc(-c2ccc(F)c(F)c2)c(-c2ccc3[nH]ncc3c2)[nH]1` [Compound 83, 5-(4-(3,4-Difluorophenyl)-2-methyl-1H-imidazol-5-yl)-1H-indazole], `Cc1nc(-c2cccc(Cl)c2)c(-c2ccc3[nH]ncc3c2)[nH]1` [Compound 101, 5-(4-(3-Chlorophenyl)-2-methyl-1H-imidazol-5-yl)-1H-indazole] is 2.7-fold lower in IC50: 1330 nM for the first, 500 nM for the second. The second is the more potent here.

`CCc1nc(-c2cc(F)cc(Cl)c2)c(-c2ccc3ncsc3c2)[nH]1` [Compound 140, 6-(4-(3-Chloro-5-fluorophenyl)-2-ethyl-1H-imidazol-5-yl)benzo[d]thiazole] and `Cc1nc(-c2ccc(F)cc2)c(-c2ccc3ncsc3c2)[nH]1` [Compound 80, 6-(4-(4-Fluorophenyl)-2-methyl-1H-imidazol-5-yl)benzo[d]thiazole] are within 1.5-fold of each other in IC50: 2220 nM for the first, 1630 nM for the second.

Going from `Nc1nc(-c2ccc(F)cc2)c(-c2ccc3nccnc3c2)s1` [Compound 170, 4-(4-fluorophenyl)-5-(quinoxalin-6-yl)thiazol-2-amine] to `Fc1ccc(-c2ncsc2-c2ccc3ncsc3c2)cc1` [Compound 181, 6-(4-(4-fluorophenyl)thiazol-5-yl)benzo[d]thiazole], the IC50 rises from 656 nM to 4550 nM (6.9-fold). The first is the more potent here.

`Cc1cc(-c2ncsc2-c2ccc3[nH]ncc3c2)ccc1F` [Compound 156, 4-(4-fluoro-3-methylphenyl)-5-(1H-indazol-5-yl)thiazole] and `Fc1ccc(-c2nc[nH]c2-c2ccc3[nH]ncc3c2)cc1F` [Compound 31, 5-(4-(3,4-Difluorophenyl)-1H-imidazol-5-yl)-1H-indazole] are within 1.5-fold of each other in IC50: 134 nM for the first, 90 nM for the second.

First: CCc1nc(-c2ccc(F)cc2)c(-c2ccc3ncnn3c2)[nH]1 [Compound 121, 6-(2-Ethyl-4-(4-fluorophenyl)-1H-imidazol-5-yl)-[1,2,4]triazolo[1,5-a]pyridine]
Second: Cn1cnc(-c2ccc(F)cc2)c1-c1ccc2[nH]ncc2c1 [Compound 48, −(4-(4-Fluorophenyl)-1-methyl-1H-imidazol-5-yl)-1H-indazole]
The IC50 of the first is 8.3-fold higher: 2070 nM for the first, 250 nM for the second. The second is the more potent here.

First: Cc1cc(-c2nc(C)n(C)c2-c2ccc3ncsc3c2)ccc1F [Compound 55, 6-(4-(4-Fluoro-3-methylphenyl)-1,2-dimethyl-1H-imidazol-5-yl)benzo[d]thiazole]
Second: Cc1nc(-c2ccc(F)c(C)c2)c(-c2ccc3nccn3c2)[nH]1 [Compound 74, 6-(4-(4-Fluoro-3-methylphenyl)-2-methyl-1H-imidazol-5-yl)imidazo[1,2-a]pyridine]
The IC50 of the first is 5.5-fold higher: 7760 nM for the first, 1410 nM for the second.

`COc1cccc(-c2nc(N)sc2-c2ccc3[nH]ncc3c2)c1` [Compound 177, 5-(1H-indazol-5-yl)-4-(3-methoxyphenyl)thiazol-2-amine] and `Nc1nc(-c2cccc(Cl)c2)c(-c2ccc3cn[nH]c3c2)s1` [Compound 172, 4-(3-chlorophenyl)-5-(1H-indazol-6-yl)thiazol-2-amine] are within 1.5-fold of each other in IC50: 1040 nM for the first, 909 nM for the second.

Compared with `Nc1nc(-c2cccc(C(F)(F)F)c2)c(-c2ccc3cn[nH]c3c2)s1` [Compound 185, 5-(1H-indazol-6-yl)-4-(3-(trifluoromethyl)phenyl)thiazol-2-amine], `Fc1cccc(-c2nc[nH]c2-c2ccc3cn[nH]c3c2)c1` [Compound 28, 6-(4-(3-Fluorophenyl)-1H-imidazol-5-yl)-1H-indazole] is 39-fold lower in IC50: 2360 nM for the first, 60 nM for the second. The second is the more potent here.

Compared with `Fc1cccc(-c2nc[nH]c2-c2ccc3ncsc3c2)c1` [Compound 30, 6-(4-(3-Fluorophenyl)-1H-imidazol-5-yl)benzo[d]thiazole], `Fc1ccc(-c2nc[nH]c2-c2ccc3ncccc3c2)cc1F` [Compound 36, 6-(4-(3,4-Difluorophenyl)-1H-imidazol-5-yl)quinoline] is 4.6-fold higher in IC50: 320 nM for the first, 1480 nM for the second. The first is the more potent here.

First: Fc1ccc(-c2nc[nH]c2-c2ccc3ncccc3c2)cc1 [Compound 38, 6-(4-(4-Fluorophenyl)-1H-imidazol-5-yl)quinoline]
Second: c1ccc(-c2nc[nH]c2-c2ccc3[nH]ncc3c2)cc1 [Compound 1, 5-(4-Phenyl-1H-imidazol-5-yl)-1H-indazole]
The IC50 of the first is 11-fold higher: 2550 nM for the first, 230 nM for the second.

`Cn1cnc(-c2ccc(F)c(F)c2)c1-c1ccc2nccnc2c1` [Compound 68, 6-(4-(3,4-Difluorophenyl)-1-methyl-1H-imidazol-5-yl)quinoxaline] and `Cc1nc(-c2cc(F)c(F)c(F)c2)c(-c2ccc3nccnc3c2)[nH]1` [Compound 96, 6-(2-Methyl-4-(3,4,5-trifluorophenyl)-1H-imidazol-5-yl)quinoxaline] are within 1.5-fold of each other in IC50: 2870 nM for the first, 2430 nM for the second.

— patent US10287295B2, “TGF-β inhibitors” (Rigel Pharmaceuticals, Inc., priority 2015, dated 2019)
